Like-named read-outs stand apart in the source and are kept apart here. Square brackets hold non-standard residues; d marks the D form. Peptide text beside a SMILES is read from it.
Legend:
[1] = In vitro peptide stability in human serum (RP-HPLC); conditions: for half-life at 50 µg/mL: human
Procedure: The initial time is recorded, and at known time intervals 50 µL of the reaction solution is removed and added to 100 µL of 6% aqueous trichloroacetic acid (TCA) for precipitation of serum proteins. […] The reaction supernatant is then analyzed using RP-HPLC (Agilent 1200 LC System) on a ZORBAX Eclipse XDB-C18, 4.6×150 mm, 5 µm column (Agilent). […] Fluorescence is detected at an excitation wavelength of 280 nm and emission wavelength of 340 nm. Kinetic analysis was carried out by least-squares analysis of the logarithm of the integration peak area versus time.

human CMKLR1 = target: T1, human CMKLR1 (Homo sapiens, UniProt Q99788); test: Ca2+ mobilization (CellLux imaging) agonist assay in HEK293A cells expressing CMKLR1 and Gα15; format: cell-based
T1 construct: host or cells: HEK293A (Invitrogen), stably expressing human Gα15
T1 sequence (Q99788 1-373): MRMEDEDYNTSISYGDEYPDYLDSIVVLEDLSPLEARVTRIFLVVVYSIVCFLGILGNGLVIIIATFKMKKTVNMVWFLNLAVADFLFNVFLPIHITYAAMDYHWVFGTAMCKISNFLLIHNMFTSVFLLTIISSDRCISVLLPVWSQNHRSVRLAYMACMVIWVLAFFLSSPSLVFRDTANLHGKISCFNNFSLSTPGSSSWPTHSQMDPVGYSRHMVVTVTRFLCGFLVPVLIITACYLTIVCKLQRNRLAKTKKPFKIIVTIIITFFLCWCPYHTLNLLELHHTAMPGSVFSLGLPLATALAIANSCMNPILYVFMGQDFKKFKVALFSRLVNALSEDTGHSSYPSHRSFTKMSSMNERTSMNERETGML
In short: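 HEK293A cells co-expressing CMKLR1 and Gα15 were loaded with FLUO4-AM, and peptides were added robotically in C1 buffer (HEPES pH 7.4, 2 mM CaCl2) with 0.1% BSA. Fluorescence changes were read in duplicate wells, buffer-subtracted and normalized to background. EC50 came from amplitude–concentration plots.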

[2] = Ca2+ mobilization, CMKLR1, decimal comma
[3] = Ca2+ mobilization, CMKLR1, decimal comma, NR where no EC50 is given, read-out: EC50

| Compound | half-life at 50 µg/mL ([1]; human serum, 25% (v/v) in RPMI) | max response (human CMKLR1; [2]) | EC50 (human CMKLR1; [3]) | t1/2 ([1]; metabolic stability in human serum) | half-life at 50 µg/mL ([1]; serum) | EC50 (human CMKLR1) |
| --- | --- | --- | --- | --- | --- | --- |
| NC(=O)CC[C@H](NC(=O)CNC(=O)[C@@H]1CCCN1C(=O)[C@H](Cc1ccccc1)NC(=O)[C@H](N)Cc1ccc(O)cc1)C(=O)N[C@@H](Cc1ccc(O)cc1)C(=O)N[C@H](Cc1c[nH]c2ccccc12)C(=O)N[C@@H](Cc1ccccc1)C(=O)N[C@H](Cc1ccccc1)C(=O)O [compound 133] (H-[dY]FPGQY[dW]F[dF]-OH; N-terminus assumed) | 20 min | 1,62 DF/F0 | 0.0674 µM | – | – | – |
| CC(C)C[C@H](NC(=O)[C@@H](N)Cc1ccccc1)C(=O)N1CCC[C@H]1C(=O)NCC(=O)N[C@@H](CCC(N)=O)C(=O)N[C@@H](Cc1ccccc1)C(=O)N[C@H](Cc1c[nH]c2ccccc12)C(=O)N[C@@H](Cc1ccccc1)C(=O)N[C@H](CO)C(=O)O [compound 89] (H-FLPGQF[dW]F[dS]-OH; N-terminus assumed) | 73 min | 1,76 DF/F0 | 0.0492 µM | – | – | – |
| CC(C)[C@H](NC(=O)[C@@H](N)Cc1ccc(O)cc1)C(=O)N1CCC[C@H]1C(=O)NCC(=O)N[C@@H](CCC(N)=O)C(=O)N[C@@H](Cc1ccc(O)cc1)C(=O)N[C@@H](C)C(=O)N[C@@H](Cc1ccccc1)C(=O)N[C@H](CO)C(=O)O [compound 86] (H-YVPGQYAF[dS]-OH; N-terminus assumed) | 24 min | 1,57 DF/F0 | 0.0218 µM | – | – | – |
| C[C@H](N)C(=O)N[C@@H](Cc1ccccc1)C(=O)NCC(=O)N[C@H](Cc1ccccc1)C(=O)N[C@H](CCC(N)=O)C(=O)N[C@@H](CO)C(=O)N[C@@H](C)C(=O)N[C@@H](Cc1ccc(O)cc1)C(=O)N[C@@H](CO)C(=O)O [compound 134] (H-AFG[dF][dQ]SAYS-OH; N-terminus assumed) | 10 min | 1,37 DF/F0 | 0.0694 µM | – | – | – |
| C[C@H](NC(=O)[C@H](Cc1ccccc1)NC(=O)[C@H](C)NC(=O)[C@H](Cc1ccccc1)NC(=O)[C@@H](N)CCC(N)=O)C(=O)N[C@@H](Cc1ccccc1)C(=O)N[C@@H](C)C(=O)N[C@@H](Cc1ccccc1)C(=O)N[C@H](CO)C(=O)O [compound 115] (H-QFAFAFAF[dS]-OH; N-terminus assumed) | 24 min | 1,2 DF/F0 | 2.49 µM | – | – | – |
| CC(C)C[C@H](NC(=O)[C@H](N)Cc1ccccc1)C(=O)N1CCC[C@H]1C(=O)NCC(=O)N[C@@H](CCC(N)=O)C(=O)N[C@@H](Cc1ccc(O)cc1)C(=O)N[C@@H](C)C(=O)N[C@@H](Cc1ccccc1)C(=O)N[C@H](CO)C(=O)O [compound 95] (H-[dF]LPGQYAF[dS]-OH; N-terminus assumed) | 2440 min | 1,75 DF/F0 | 0.0806 µM | – | – | – |
| CC(C)C[C@H](NC(=O)[C@@H](N)Cc1ccc(O)cc1)C(=O)N1CCC[C@H]1C(=O)NCC(=O)N[C@@H](CCC(N)=O)C(=O)N[C@@H](Cc1ccc(O)cc1)C(=O)N[C@@H](C)C(=O)N[C@H](C)C(=O)N[C@H](Cc1ccccc1)C(=O)O [compound 141] (H-YLPGQYA[dA][dF]-OH; N-terminus assumed) | 34 min | 1,73 DF/F0 | 0.108 µM | – | – | – |
| CC(C)[C@H](NC(=O)[C@@H](N)Cc1ccc(O)cc1)C(=O)N1CCC[C@H]1C(=O)NCC(=O)N[C@@H](CCC(N)=O)C(=O)N[C@@H](Cc1ccccc1)C(=O)N[C@@H](C)C(=O)N[C@@H](Cc1ccccc1)C(=O)N[C@H](Cc1ccccc1)C(=O)O [compound 35] (H-YVPGQFAF[dF]-OH; N-terminus assumed) | – | 0,96 DF/F0 | – | 42 min | – | – |
| CC(C)C[C@H](NC(=O)[C@@H](N)Cc1ccc(O)cc1)C(=O)N1CCC[C@H]1C(=O)N[C@H](CO)C(=O)N[C@@H](CCC(N)=O)C(=O)N[C@@H](Cc1ccc(O)cc1)C(=O)N[C@@H](C)C(=O)N[C@@H](Cc1ccccc1)C(=O)N[C@H](Cc1ccccc1)C(=O)O [compound 119] (H-YLP[dS]QYAF[dF]-OH; N-terminus assumed) | – | 1,62 DF/F0 | – | – | 63 min | 0.00031 µM |

Reference: publication PMC3351444, “Molecular Evolution of a Peptide GPCR Ligand Driven by Artificial Neural Networks” (PLoS ONE, 2012)
